The subject of series [1] is tumor vascular endothelium of subcutaneous HCC4017 tumors. The experiment in a line: In vivo vascular disrupting effect. The following applies: 20 μg i.v., 24 hours. Details: species or system mice. As to the method: The in vivo vascular disrupting effects of PPS1-D2 were explored. Mice bearing HCC4017 tumors growing subcutaneously were injected i.v. with 20 μg of PPS1-D2. Twenty four hours later, the tumors were removed, cryosectioned, and stained for CD31 to detect vascular endothelium. […] This dose can be calculated to give an initial blood concentration that is roughly 10-fold higher than needed for maximal lysis of PS-expressing cell in vitro.

The nature of series [2]: Propidium iodide test of cell lysis. The series is classed as cell-based. The following applies: non-permeabilized cells.
Series [3] in a line: Toxicity of PPS1-D2 to mice. It is filed as in vivo.
The test system of series [4] is breast cancer. The following applies: cited from earlier work.
In series [5] the test system is H460 xenografts. The experiment in a line: Inhibition of growth of H460 lung cancer xenograft. It is filed as in vivo, mice. As to the method: Whether PPS1D1 would inhibit tumor growth in a murine model was examined. H460 cells were implanted in nude mice. Tumors were allowed grow until it reach […]. These xenografts were then treated with a daily dose of […] in four different groups that consist of PPS1D1 alone, docetaxel alone, PPS1D1 and docetaxel together or with the control peptoid (PC462D1) alone. Docetaxel is a standard chemotherapeutic treatment for non-small cell carcinoma. The activity of PPSD1 and its ability to work as a combination treatment were examined. […] This effect was extremely potent and the tumor growth was completely controlled. […] It has been reported that chemotherapy and radiation therapy increase the PS flipping in tumor microenvironment. Therefore, Docetaxel might have helped improve binding of PPS1D1 on cancer cell surface that is now displaying an increased amount of PS to be targeted. After the standard chemotherapy and radiation therapy, the target PS is highly abundant for the drug to recognize and attack.
The effect of PPS1D1 on the growth of H460 xenografts implanted in NOD/SCID immunodeficient mice was examined. Immunodeficient animals were chosen to facilitate the growth of human tumor xenografts. […] Therapy with a control peptoid (PC462D1, 0.25 mg/mouse, 3×/week ip), PPS1D1 (0.25 mg/mouse, 3×/week ip), docetaxel (0.5 mg/kg, 2×/week, ip) or the combination of PPS1D1+docetaxel was initiated when tumors were ˜100 mm3 in volume. […] Tumor tissue was harvested after 4 weeks of therapy and assessed for cell proliferation and apoptosis by immunohistochemistry. […] It is clear from studies with bavituximab that standard chemotherapy (e.g., taxanes) increases the exposure of PS resulting in elevated binding of the PS targeting agent. A similar mechanism can underlie the enhanced activity of docetaxel and PPS1D1.
All animals were housed in a pathogen-free facility with continuous access to food and water. Mice were purchased from the core breeding facility at UT Southwestern. Six to eight-week-old female NOD/SCID mice were injected with 2.5×10^6 H460 cells subcutaneously. Tumor volume was followed by twice weekly measurements with Vernier calipers. Animals were randomized and treatment was initiated with mean tumor volume of each group was 100 mm3. Four different groups used were: (I) control PC462D1, (II) PPS1D1, (III) docetaxel, and (IV) combination of PPS1D1+docetaxel. Mice (n=8/group) were treated with PPS1D1 or PC462D1 in saline by ip injection at a dose of 0.25 mg/mouse, 3 times per week on a M-W-F schedule. Docetaxel from the UT Southwestern Clinical pharmacy was diluted in saline and delivered 2×/week ip at 5 mg/kg. Animals were sacrificed after 4 weeks of therapy. Tumor tissue was snap frozen, sectioned and stained with antibodies specific for phospho-Histone H3 (Millipore, #06-570) and cleaved caspase 3 (Cell Signaling, #9664). Reactivity was developed with appropriate fluorescently conjugated secondary antibodies (Jackson ImmunoResearch) and mounted with Prolong Gold with DAPI (Invitrogen), coverslipped and evaluated by fluorescence microscopy.

A short description of series [6]: Annexin V competition on lipid ELISA. The series is classed as binding. The following applies: ELISA-like, 100 nM Annexin V. As for the experimental part:
(§1) Multiple competition assays were conducted to determine whether PPS1 (or PPS1D1) competes with Annexin V, a known PS binding agent. […] Competition between Annexin V and PPS1 for binding to PS in liposomes using flow cytometry was evaluated. […] However, PPS1 directly binds PS. Also, PS-ligand binding may be much more complex than that of a typical protein-ligand binding. Typical protein ligand binding occurs via a defined binding pocket, which facilitates clear competition by other ligands that interact with the same binding pocket. But PS is a lipid in a fluid membrane, which has no defined macromolecular structure further complicating possible binding modes.
Lipids (Avanti Polar Lipids) were dissolved in chloroform at 10 μg/ml and coated on to Immulon 1B “U” bottom microtiter plates (ThermoFisher, MA). Chloroform was evaporated at room temp (in the hood) and plates were blocked with 200 μl of 1% BSA for 1 hour. Plates were washed with 3× PBS. Biotinylated PPS1D1 dissolved in blocking buffer was added and incubated for 1 hour at room temp. Plates were washed with 3× PBS and 2× Annexin binding buffer. […] Binding was detected with streptavidin-HRP (1:1000 in blocking buffer) followed by 100 μl OPD (Sigma-Aldrich, MO). The reaction was stopped with 100 μl 0.18M H2SO4 and absorbance was read at 490 nm using the spectrophotometer (Spectramax i3, Molecular Devices, CA).
(In general: ELISA stands for enzyme-linked immunosorbent assay.)

A short description of series [7]: Annexin V / PPS1 competition on liposomes by flow cytometry. The series is classed as binding. The following applies: unlabeled Annexin V 50 nM. As for the experimental part: as §1
Unlabeled Annexin V vs FITC-PPS1 competition. 0.1 mM liposomes (85 mol % POPC, 15 mol % DOPS) were incubated with incubated with 50 nM Annexin V in Binding Buffer (0.01 M HEPES/NaOH (pH 7.4), 0.14 M NaCl, and 2.5 mM CaCl2) with 3% BSA for lhour. FITC PPS1 was added and the solution was incubated for 1 hour at room temperature. The binding of FITC-PPS1 to liposomes was analyzed by BD Accuri™ C6 flow cytometer (Becton-Dickinson, NJ). All data were analyzed using BDAccuriC6 software.
Unlabeled PPS1 vs FITC-Annexin V competition. […] The binding of FITC-Annexin V to liposomes was analyzed by BD Accuri™ C6 flow cytometer (Becton-Dickinson, NJ). All data were analyzed using BDAccuriC6 software.
(In flow cytometry, cells or beads pass a laser one at a time.)

Series [8] is described as follows: On-bead competition assay. The following applies: Annexin V at 10, 50 and 100 nM. It is filed as binding. As for the experimental part: Experimental procedure 12: On-bead competition assay. PPS1 and PC462 were synthesized on Tentagel beads. Organic solvent was removed and the beads were washed with 3 times with PBS. The beads were then incubated with PBS containing 3% BSA for 1 hour at room temperature. These beads were then incubated with 0.1 mM liposomes (84 mol % POPC, 15 mol % DOPS and 1 mol % NBD) for 2 hours at room temperature. Beads containing liposomes were the washed with binding buffer 3 times. […] Beads were then washed with binding buffer and imaged using fluorescence Microscope (Olympus BX-53).

For series [9] the following is noted: calcium-dependent; cited from earlier work.
For series [10] the following is noted: complexes with beta2-glycoprotein 1; cited from earlier work.
Series [11] deals with non-small cell lung cancer (NSCLC). The following applies: in combination with carboplatin and paclitaxel (11/17); cited from earlier work.
Series [12] concerns HCC4017, H460, HCC95, H1693, H1395 lung cancer cell lines. Description: Cell staining with Hoechst 33342 and propidium iodide (membrane integrity). It is filed as cell-based, human. The following applies: 0.005% Benzalkonium chloride. As to the method: It was evaluated how PPS1D1 affects viability of these PS expressing cancer cell lines. While there are difficulties of narrowing down the exact mechanism of action of a compound targeting cell membrane lipids, whether PPS1D1 has any effect on cell membrane integrity was evaluated. Cells were treated with standard DNA staining dyes Propidium iodide (PI) and Hoechst 33342. While both bind DNA, only Hoechst is cell permeable. Therefore, when treating live cells only Hoechst will stain the nucleus while PI will stain the nucleus only if the cell membrane integrity is compromised. All the lung cancer cell lines and normal HBEC30KT cells were treated with these dyes in the presence of PPS1D1 (at 1 μM and 20 μM) or a control compound PC462D1 at 20 μM and evaluated fluorescence by microscopy without fixation. […] These observations indicate that 20 μM PPS1D1 is selectively cytotoxic to PS-positive lung cancer cells.
10,000 cells of HCC4017, H460, HCC95, H1693,H1395 and HBEC30KT were plated on chamber slides (Lab-Tek, Thermo Fisher, MA). On second day, cells were treated with PPS (1 μM and 20 μM), control PC462D1 (20 μM) and 0.005% Benzalkonium chloride (BAC) in RPMI medium with 10% FBS containing 3% BSA (KSFM media with 3% BSA for HBEC30KT). Chamber slides were washed with PBS three times. Cells were then stained with Hoechst 33342 (10 μg/ml) for 30 min in dark. Chamber slides were washed with 3× PBS. Cells were then stained with propidium iodide (1 mg/ml) for 15 mins. Cells were washed with 3× PBS and imaged using Fluorescence Microscope (Olympus BX-53).

Positions of bridges follow the written chain, without caps; N, C: chain ends. Non-standard residues stand in square brackets, D forms with d. Residues, ends and D or L forms follow the SMILES beside them. Chains are numbered I, II in the order given. Gly(N-piperonyl) = O=C(O)CNCc1ccc2c(c1)OCO2; N(4-MeOBn)Gly = COc1ccc(CNCC(=O)O)cc1; Nrpe = C[C@@H](NCC(=O)O)c1ccccc1; Nlys = NCCCCNCC(=O)O; βAla = NCCC(=O)O

As to `COc1ccc(CN(CC(=O)N(CCCCN)CC(=O)N[C@@H](CCCCN)C(=O)N[C@H](CCCCN)C(=O)N[C@@H](CCSC)C(=O)NCCC(=O)NCCCC[C@H](NC(=O)CCNC(=O)[C@H](CCSC)NC(=O)[C@@H](CCCCN)NC(=O)[C@H](CCCCN)NC(=O)CN(CCCCN)C(=O)CN(Cc2ccc(OC)cc2)C(=O)CN(C(=O)CN(Cc2ccc3c(c2)OCO3)C(=O)CN[C@H](C)c2ccccc2)[C@H](C)c2ccccc2)C(N)=O)C(=O)CN(C(=O)CN(Cc2ccc3c(c2)OCO3)C(=O)CN[C@H](C)c2ccccc2)[C@H](C)c2ccccc2)cc1` [PPS1-D2] (I: H-[Nrpe][Gly(N-piperonyl)][Nrpe][N(4-MeOBn)Gly][Nlys]K[dK]M[βAla]K-NH2 / II: H-[Nrpe][Gly(N-piperonyl)][Nrpe][N(4-MeOBn)Gly][Nlys]K[dK]M[βAla]; amide I:10-II:C; N-terminus assumed), the “disruption of tumor vascular endothelium (CD31)” value in series [1] was “disrupted tumor endothelium”. In addition, the “nuclear staining by propidium iodide” value in [2] is recorded as “nuclear staining happens only when PPS1-D2 is treated”. In addition, in [3] (mice treated with 50 μg), the signs of toxicity result is on record as “no signs of toxicity”. In series [3] (mouse, in vivo), this compound showed an MTD of 2 to 4 mg/kg.

In the case of `CC(=O)O[C@@]12CO[C@@H]1C[C@H](O)[C@@]1(C)C(=O)[C@H](O)C3=C(C)[C@@H](OC(=O)[C@H](O)[C@@H](NC(=O)OC(C)(C)C)c4ccccc4)C[C@@](O)([C@@H](OC(=O)c4ccccc4)[C@H]21)C3(C)C` [docetaxel, reference compound], in series [4] (docetaxel alone, separate study), the response rate is listed as 41%. For the same compound, in series [5] (H460 in NOD/SCID mice, peptoids 0.25 mg/mouse 3x/week ip, docetaxel 0.5 mg/kg 2x/week ip), the “tumor growth (tumor volume vs days post therapy initiation)” value is on record as “slowed tumor growth”. The tumor size reduction result in series [5] (H460 in nude mice, daily dose of 0.5 mg/mL) is “equally effective in reducing the size of the tumors”.

Consider “Annexin V: 35.8 kDa protein that binds PS in a calcium-dependent manner”, for which the “competition with PPS1D1 for binding to PS” value in series [6] was “did not compete”. In addition, in [7], the “competition with FITC-PPS1 binding to liposomes” value is given as “did not compete”. Moreover, the “removal of liposomes from PPS1 beads” value in series [8] is reported as “None of these conditions were able to remove liposomes from beads”. In series [9], the “affinity for PS” value was “nanomolar affinity”.

The Kd is the constant that tells how readily two partners part at equilibrium. Turning to “Bavituximab: human-mouse chimeric antibody targeting PS via beta2-glycoprotein 1”, in series [10], the Kd was 0.4 nM. In addition, the objective response in [4] (combination of bavituximab and docetaxel, phase II (28/46)) is on record as 61%; in series [11], 65%.

For the compound “Benzalkonium chloride [BAC, reference compound]”, the “PI staining of cells” value in series [12] was “PI-positive nuclei”.

Source of the values: patent US10849875B2, “Cancer specific lipid targeted peptidomimetics” (University of Houston System, priority 2015, dated 2020).
